Test results as given in patent publication US7220784B2, “Substituted stilbenes and their reactions” (priority 2000, dated 2007).

Tests used:
HUVEC = experiment: Growth inhibition studies using HUVEC; type: cell-based, human
Procedure, shortened: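 MTT cytotoxicity/growth-inhibition assay in human cell lines including A2780, A2780/ADR, H460 and HUVEC.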

[1] = tested on: liver metastatic T50:80 tumours; experiment: Anti-vascular effects, histological examination of T50:80 tumours; type: in vivo, mice
Description: (§1) (2) Competition for the colchicine binding site on tubulin. The figure quoted represents the % of ^3H-colchicine bound following co-incubation of test compound and ^3H-cochicine with isolated tubulin. Where ester pro-drugs were used the experiments were carried out in the presence and absence of porcine liver esterase. • (3) Cytotoxicity/growth inhibition assay. This was carried out by the MTT assay. • (4) Permeability (shape-change) assay in endothelial cells. This was carried out using a method based on that of Watts et al. (Anticancer Res., 17, 71–75, (1997)). This involved the diffusion of a fluorescently labelled dextran through a barrier of endothelial cells (HUVEC) grown to confluence on a porous membrane. […] The anti-vascular effects of the agents were monitored by either positron emission tomography (PET) or by histologogical examination following treatment of mice bearing T50:80 murine breast tumours, or H460 human lung tumours. • (6) Anti-tumour efficacy of agents was determined in xenografts of H460 human lung cancer. Animals (n=5) were trated either with 5 daily injections and tumour size measured with time following treatment. • (7) The pharmacokinetic profile of agents was determined in mice following injection with drug. Blood was taken at various times following treatment and analysed by HPLC with UV detection. […]

[2] = tested on: H460 human lung cancer xenografts; experiment: Anti-tumour efficacy in xenografts of H460 human lung cancer; type: in vivo, mice; conditions: H460 human lung cancer xenograft
Description: as §1

SMILES: COc1ccc(C=Cc2cc(OC)c(OC)c(OC)c2)cc1F [Compound 97-64H]
- concentration necessary to inhibit the growth of HUVEC cells in vitro (HUVEC): 0.001 mM
- IC50 (HUVEC; Homo sapiens, HUVEC): 2.4 nM
- examination of tumours for vascular damage ([1]; 2/3 or 3/4 of MTD, 2 hr, 4 hr, 24 hr, 48 hr after administration): tumour necrosis, blocked vessels, infiltration with red blood cells
- time by which vascular effects are seen ([1]; mouse, in vivo): ≤ 2 h
- anti-tumour activity in vivo [2]: shows anti-tumour activity in vivo
